Test results as given in ChEMBL document CHEMBL1124720, “4'-[(4-Piperidyl)carbonyl]methanesulfonanilides as potent, selective, bioavailable class III antiarrhythmic agents” (J Med Chem, 1990).
Calls of active or inactive are those of the source. The rule behind the calls is not given here.

Tests used:
[1] = Half life of beta-elimination phase in plasma after oral administration of 10-50 mg/kg in conscious dogs; Range is 2.2-2.9; assay type: ADME, organism-based, Canis lupus familiaris; conditions: dog
Canis familiaris [2] = experiment: Percent change in Mean Blood pressure after intravenous administration of 0.01 mg/kg in Anesthetized Dogs; assay type: functional, Canis lupus familiaris
Canis familiaris [3] = experiment: Percent change in Mean Blood pressure after intravenous administration of 0.03 mg/kg in Anesthetized Dogs; assay type: functional, Canis lupus familiaris
Canis familiaris [4] = experiment: Percent change in Mean Blood pressure after intravenous administration of 0.1 mg/kg in Anesthetized Dogs; assay type: functional, Canis lupus familiaris
Canis familiaris [5] = experiment: Percent change in rate of left ventricular pressure after intravenous administration of 0.01 mg/kg in Anesthetized Dogs; assay type: functional, Canis lupus familiaris, Heart left ventricle
Canis familiaris [6] = experiment: Percent change in rate of left ventricular pressure after intravenous administration of 0.03 mg/kg in Anesthetized Dogs; assay type: functional, Canis lupus familiaris, Heart left ventricle
Canis familiaris [7] = experiment: Percent change in rate of left ventricular pressure after intravenous administration of 0.1 mg/kg in Anesthetized Dogs; assay type: functional, Canis lupus familiaris, Heart left ventricle
Canis familiaris [8] = experiment: Percent change in QTc interval after intravenous administration of 0.03 mg/kg in Anesthetized Dogs; assay type: functional, Canis lupus familiaris
Canis familiaris [9] = experiment: Percent change in QTc interval after intravenous administration of 0.1 mg/kg in Anesthetized Dogs; assay type: functional, Canis lupus familiaris
Canis familiaris [10] = experiment: Percent change in Heart rate after intravenous administration of 0.01 mg/kg in Anesthetized Dogs; assay type: functional, Canis lupus familiaris
Canis familiaris [11] = experiment: Percent change in Heart rate after intravenous administration of 0.03 mg/kg in Anesthetized Dogs; assay type: functional, Canis lupus familiaris
Canis familiaris [12] = experiment: Percent change in Heart rate after intravenous administration of 0.1 mg/kg in Anesthetized Dogs; assay type: functional, Canis lupus familiaris
Canis familiaris [13] = experiment: Percent change in Effective refractory period after intravenous administration of 0.1 mg/kg in Anesthetized Dogs; assay type: functional, Canis lupus familiaris
Canis familiaris [14] = experiment: Percent change in Effective refractory period after intravenous administration of 0.03 mg/kg in Anesthetized Dogs; assay type: functional, Canis lupus familiaris
Cavia porcellus [15] = species on record: Cavia porcellus; experiment: Maximum percent increase in 90% repolarization at a concentration of 100 uM in Guinea pig right ventricular papillary muscles; assay type: functional, Muscle tissue
Cavia porcellus [16] = species on record: Cavia porcellus; experiment: The maximum percent change in the maximum rate rise of the action Potential in Guinea pig right ventricular papillary muscles at concentration 0.1-100 uM; NS=Not significant; assay type: functional; conditions: Muscle tissue
Cavia porcellus [17] = species on record: Cavia porcellus; experiment: Concentration (0.1-100 uM) that causes 10% prolongation in the action potential duration at 90% […] in Guinea pig right ventricular papillary muscles; assay type: functional, Muscle tissue
Canis familiaris [18] = experiment: Percent change in QTc interval after intravenous administration of 0.01 mg/kg in Anesthetized Dogs; assay type: functional, Canis lupus familiaris
Canis familiaris [19] = experiment: Percent change in Effective refractory period after intravenous administration of 0.01 mg/kg in Anesthetized Dogs
Canis familiaris [20] = experiment: Percent change in Heart rate after intravenous administration of 0.003 mg/kg in Anesthetized Dogs; assay type: functional, Canis lupus familiaris
Canis familiaris [21] = experiment: Percent change in Effective refractory period after intravenous administration of 0.003 mg/kg in Anesthetized Dogs; assay type: functional, Canis lupus familiaris
Canis familiaris [22] = experiment: Percent change in Effective refractory period after intravenous administration of 0.01 mg/kg in Anesthetized Dogs; assay type: functional, Canis lupus familiaris
Cavia porcellus [23] = species on record: Cavia porcellus; experiment: Concentration (0.1-10 uM) that causes 10% prolongation in the action potential duration at 90% […] in Guinea pig right ventricular papillary muscles; assay type: functional, Muscle tissue
[24] = Half life of beta-elimination phase in plasma after oral administration of 10-50 mg/kg in conscious dogs; Range is 1.4-2.1; assay type: ADME, organism-based, Canis lupus familiaris; conditions: dog
Cavia porcellus [25] = species on record: Cavia porcellus; experiment: Concentration (1-100 uM) that causes 10% prolongation in the action potential duration at 90% […] in Guinea pig right ventricular papillary muscles; assay type: functional, Muscle tissue
Cavia porcellus [26] = species on record: Cavia porcellus; experiment: The maximum percent change in the maximum rate rise of the action Potential in Guinea pig right ventricular papillary muscles at concentration 1-100 uM; NS=Not significant; assay type: functional; conditions: Muscle tissue
Canis familiaris [27] = experiment: Percent change in Heart rate after intravenous administration of 0.01 mg/kg in Anesthetized Dogs
Canis familiaris [28] = experiment: Percent change in Mean Blood pressure after intravenous administration of 0.3 mg/kg in Anesthetized Dogs; assay type: functional, Canis lupus familiaris
Canis familiaris [29] = experiment: Percent change in Mean Blood pressure after intravenous administration of 1 mg/kg in Anesthetized Dogs; assay type: functional, Canis lupus familiaris
Canis familiaris [30] = experiment: Percent change in Mean Blood pressure after intravenous administration of 3 mg/kg in Anesthetized Dogs; assay type: functional, Canis lupus familiaris
Canis familiaris [31] = experiment: Percent change in rate of left ventricular pressure after intravenous administration of 0.3 mg/kg in Anesthetized Dogs; assay type: functional, Canis lupus familiaris, Heart left ventricle
Canis familiaris [32] = experiment: Percent change in rate of left ventricular pressure after intravenous administration of 1 mg/kg in Anesthetized Dogs; assay type: functional, Canis lupus familiaris, Heart left ventricle
Canis familiaris [33] = experiment: Percent change in QTc interval after intravenous administration of 0.3 mg/kg in Anesthetized Dogs; assay type: functional, Canis lupus familiaris
Canis familiaris [34] = experiment: Percent change in QTc interval after intravenous administration of 1 mg/kg in Anesthetized Dogs; assay type: functional, Canis lupus familiaris
Canis familiaris [35] = experiment: Percent change in QTc interval after intravenous administration of 3 mg/kg in Anesthetized Dogs; assay type: functional, Canis lupus familiaris
Canis familiaris [36] = experiment: Percent change in Heart rate after intravenous administration of 0.3 mg/kg in Anesthetized Dogs; assay type: functional, Canis lupus familiaris
Canis familiaris [37] = experiment: Percent change in Heart rate after intravenous administration of 1 mg/kg in Anesthetized Dogs; assay type: functional, Canis lupus familiaris
Canis familiaris [38] = experiment: Percent change in Heart rate after intravenous administration of 3 mg/kg in Anesthetized Dogs; assay type: functional, Canis lupus familiaris
Canis familiaris [39] = experiment: Percent change in Effective refractory period after intravenous administration of 0.3 mg/kg in Anesthetized Dogs; assay type: functional, Canis lupus familiaris
Canis familiaris [40] = experiment: Percent change in Effective refractory period after intravenous administration of 1 mg/kg in Anesthetized Dogs; assay type: functional, Canis lupus familiaris
Canis familiaris [41] = experiment: Percent change in Effective refractory period after intravenous administration of 3 mg/kg in Anesthetized Dogs; assay type: functional, Canis lupus familiaris
Canis familiaris [42] = experiment: Percent change in rate of left ventricular pressure after intravenous administration of 3 mg/kg in Anesthetized Dogs; assay type: functional, Canis lupus familiaris, Heart left ventricle
Cavia porcellus [43] = species on record: Cavia porcellus; experiment: Concentration (1-10 uM) that causes 10% prolongation in the action potential duration at 90% […] in Guinea pig right ventricular papillary muscles; assay type: functional, Muscle tissue
Cavia porcellus [44] = species on record: Cavia porcellus; experiment: Maximum percent increase in 90% repolarization at a concentration of 10 uM in Guinea pig right ventricular papillary muscles; assay type: functional, Muscle tissue
Cavia porcellus [45] = species on record: Cavia porcellus; experiment: The maximum percent change in the maximum rate rise of the action Potential in Guinea pig right ventricular papillary muscles, at compound concentration 1-10 uM; NS=Not significant; assay type: functional; conditions: Muscle tissue

| Structure (SMILES) | mBP(delta) (Canis familiaris [2]) | mBP(delta) (Canis familiaris [3]) | mBP(delta) (Canis familiaris [4]) | LV dP/dTmax(delta) (Canis familiaris [5]) | LV dP/dTmax(delta) (Canis familiaris [6]) | LV dP/dTmax(delta) (Canis familiaris [7]) | QTc delta (Canis familiaris [8]) | QTc delta (Canis familiaris [9]) | HR(delta) (Canis familiaris [10]) | HR(delta) (Canis familiaris [11]) | HR(delta) (Canis familiaris [12]) | ERP (delta) (Canis familiaris [13]) | ERP (delta) (Canis familiaris [14]) | Max APD90 (delta) (Cavia porcellus [15]) | QTc delta (Canis familiaris [18]) | ERP (delta) (Canis familiaris [22]) | C10APD90 (Cavia porcellus [25]) | Vmax (Cavia porcellus [26]) | further results |
| --- | --- | --- | --- | --- | --- | --- | --- | --- | --- | --- | --- | --- | --- | --- | --- | --- | --- | --- | --- |
| CS(=O)(=O)Nc1ccc(C(=O)C2CCN(CCCc3ccncc3)CC2)cc1.Cl.Cl | 2% | -5% | -9% | 7% | 13% | 13% | 15% | 21% | -6% | -20% | -28% | 19% | 15% | 33% | 7% | – | – | – | half-life [1]: 2.2 h; Vmax (Cavia porcellus [16]): inactive; C10APD90 (Cavia porcellus [17]): 0.19 µM; ERP (delta) (Canis familiaris [19]): 11% |
| Cc1cccc(CCN2CCC(C(=O)c3ccc(NS(C)(=O)=O)cc3)CC2)n1.Cl.Cl | -4% | -6% | – | – | – | – | – | – | -20% | -30% | – | – | 24% | – | – | 15% | – | – | HR(delta) (Canis familiaris [20]): -8%; ERP (delta) (Canis familiaris [21]): 6%; C10APD90 (Cavia porcellus [23]): 0.13 µM |
| CS(=O)(=O)Nc1ccc(C(=O)C2CCN(CCc3cccnc3)CC2)cc1.Cl.Cl | -2% | -2% | -8% | 8% | 22% | 26% | 13% | 25% | – | -8% | -17% | 19% | 10% | 20% | 5% | 6% | 1.51 µM | inactive | half-life [24]: 1.4 h; HR(delta) (Canis familiaris [27]): -3% |
| CC(C)NCC(O)c1ccc(NS(C)(=O)=O)cc1 (stereo not drawn) [SOTALOL] | – | – | – | – | – | – | – | – | – | – | – | – | – | 21% | – | – | 16.3 µM | inactive | mBP(delta) (Canis familiaris [28]): 0%; mBP(delta) (Canis familiaris [29]): -7%; mBP(delta) (Canis familiaris [30]): -13%; LV dP/dTmax(delta) (Canis familiaris [31]): -1%; LV dP/dTmax(delta) (Canis familiaris [32]): -4%; QTc delta (Canis familiaris [33]): 4%; QTc delta (Canis familiaris [34]): 11%; QTc delta (Canis familiaris [35]): 23%; HR(delta) (Canis familiaris [36]): -6%; HR(delta) (Canis familiaris [37]): -19%; HR(delta) (Canis familiaris [38]): -30%; ERP (delta) (Canis familiaris [39]): 5%; ERP (delta) (Canis familiaris [40]): 14%; ERP (delta) (Canis familiaris [41]): 26%; LV dP/dTmax(delta) (Canis familiaris [42]): 5% |
| CCCCCCC[N+](CC)(CC)CCCCc1ccc(Cl)cc1 [CLOFILIUM] | – | – | – | – | – | – | – | – | – | – | – | – | – | – | – | – | – | – | C10APD90 (Cavia porcellus [43]): 1 µM; Max APD90 (delta) (Cavia porcellus [44]): 13%; Vmax (Cavia porcellus [45]): inactive |
